Measurements taken from ChEMBL document CHEMBL1201862, “PubChem BioAssay data set” (2004).
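Results reflect a 48-hour exposure of cells in 96-well plates to compound at five concentrations. At the GI50, growth is halved.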 Calls of active or inactive are those of the source. Cut-off read from the data, not from the text of the source: active = GI50 up to about 1.1 µM and inactive = higher.

Key:
Test in all cases: inhibition of tumour cell growth, NCI panel, 48 h
KM-20L2 = tested on: KM-20L2
DMS-273 = tested on: DMS-273
RXF 631 = tested on: RXF 631
XF498 = tested on: XF498
LXFL 529 = tested on: LXFL 529
M19-MEL = tested on: M19-MEL
DLD-1 = tested on: DLD-1
DMS-114 = tested on: DMS-114
SNB-78 = tested on: SNB-78

Measured: GI50

CCN(CC)CCSc1c2ccccc2nc2cc(NCC(=O)Nc3ccccc3-c3ccccc3NC(=O)CNc3ccc4c(SCCN(CC)CC)c5ccccc5nc4c3)ccc12
inactive: KM-20L2 > 100 µM | DMS-273 > 34.7 µM | RXF 631 > 100 µM | XF498 > 100 µM | LXFL 529 > 91 µM | M19-MEL 23 µM | DLD-1 > 100 µM

O=C(O)c1ccccc1NC(=O)C1CCCCC1
inactive: DMS-114 > 100 µM | SNB-78 > 100 µM | KM-20L2 > 100 µM | DMS-273 > 100 µM | RXF 631 > 100 µM | XF498 > 100 µM | LXFL 529 > 100 µM | M19-MEL > 100 µM | DLD-1 > 100 µM

COC(=O)/C(=N\NC(=O)C[N+](C)(C)C)C(C(=O)OC)C(=O)C(=O)Nc1ccccc1C(N)=O (configuration not stated)
inactive: SNB-78 > 100 µM | KM-20L2 > 100 µM | DMS-273 > 100 µM | LXFL 529 > 100 µM | M19-MEL > 100 µM | DLD-1 > 100 µM

COc1ccc(NC(=O)CSc2nnc(-c3ccc(/N=C\c4ccc(Cl)cc4)cc3)o2)cc1
inactive: DMS-114 15.2 µM | SNB-78 24.9 µM | KM-20L2 39.6 µM | DMS-273 26.8 µM | XF498 17.1 µM | LXFL 529 16.5 µM | M19-MEL 15 µM

C1=C2/CC[C@H](Sc3ccccc3)C2C2(CCCCC/1)OCCO2 (some centres not stated)
inactive: SNB-78 39.4 µM | KM-20L2 18.2 µM | DMS-273 25.4 µM | XF498 22.7 µM | M19-MEL 15.6 µM | DLD-1 33 µM

CN(C)c1ccc2c(=O)c3ccccc3oc2n1
inactive: DMS-114 82.2 µM | SNB-78 > 100 µM | KM-20L2 > 100 µM | DMS-273 > 100 µM | RXF 631 > 100 µM | XF498 > 100 µM | LXFL 529 84.3 µM | M19-MEL > 100 µM | DLD-1 73.5 µM

Cn1ccnc1CCc1ccc(Cl)c(Cl)c1
inactive: DMS-114 67.5 µM | SNB-78 > 100 µM | KM-20L2 > 100 µM | DMS-273 > 100 µM | LXFL 529 > 100 µM | M19-MEL > 100 µM | DLD-1 > 100 µM

C[C@@H]1OC2(O)[C@H]3CCCN3S(=O)(=O)CCN2C1=O (some centres not stated)
active: XF498 0.0306 µM
inactive: SNB-78 > 100 µM | KM-20L2 > 100 µM | RXF 631 > 100 µM | LXFL 529 > 100 µM | M19-MEL > 100 µM | DLD-1 > 100 µM

Nc1ccc2c(c1)CN1C(=O)c3ccccc3C1=N2 [DANIQUIDONE]
inactive: DMS-114 70.5 µM | SNB-78 25 µM | KM-20L2 59 µM | DMS-273 32.4 µM | LXFL 529 82.8 µM | M19-MEL > 116 µM | DLD-1 51.1 µM

CN[C@@H](C)[C@H](NC)c1ccccc1
inactive: DMS-114 > 100 µM | SNB-78 > 100 µM | DMS-273 > 100 µM | RXF 631 > 100 µM | LXFL 529 > 100 µM | M19-MEL > 100 µM | DLD-1 > 100 µM

COc1cccc2c1C(=O)c1c(O)c3c(c(O)c1C2=O)C[C@@](O)(C(C)=O)C[C@@H]3OC1CC(N(C)C)C(O)C(C)O1 (some centres not stated)
active: DMS-114 0.0475 µM | SNB-78 0.00873 µM | KM-20L2 0.00603 µM | DMS-273 0.00964 µM | XF498 0.0001 µM | LXFL 529 0.00684 µM | M19-MEL 0.0213 µM | DLD-1 0.0153 µM

CC(C)(C)N1CC1CNC(=O)C(=O)NCC1CN1C(C)(C)C (configuration not stated)
active: DMS-114 0.603 µM | XF498 0.526 µM | DLD-1 0.556 µM
inactive: KM-20L2 1.65 µM | M19-MEL 1.26 µM

Cc1cccc(C(C)(C)C)c1NC(=O)C(=O)C(C(=O)/C=C\c1ccccc1)C1OC(=O)c2ccccc21 (configuration not stated)
inactive: DMS-114 > 100 µM | SNB-78 > 100 µM | KM-20L2 > 100 µM | RXF 631 > 100 µM | XF498 > 100 µM | LXFL 529 > 100 µM | M19-MEL > 100 µM | DLD-1 > 100 µM

CCCCCCCCCCCCCCCCCC(=O)Nc1ccn(C2OC(CO)C(O)C2O)c(=O)n1 (configuration not stated)
inactive: SNB-78 > 100 µM | KM-20L2 32.1 µM | DMS-273 14.3 µM | LXFL 529 > 100 µM | M19-MEL 5.69 µM | DLD-1 > 100 µM

CC12CCC3(C1)[C@H](CC2=O)C[C@@H](OC(=O)c1ccccc1)C1C(C)(CO)CCC[C@@]13C (some centres not stated)
inactive: SNB-78 34 µM | KM-20L2 1.82 µM | M19-MEL 3.4 µM | DLD-1 2.48 µM
active: DMS-114 0.156 µM | DMS-273 0.625 µM | LXFL 529 0.6 µM

CCCCCCCCCCCC(=O)OCC1OC(n2cc(F)c(=O)[nH]c2=O)C(NC(=O)OCc2ccccc2)C(OC(=O)CCCCCCCCCCC)C1O (configuration not stated)
inactive: DMS-114 > 100 µM | SNB-78 > 100 µM | KM-20L2 > 100 µM | DMS-273 > 100 µM | RXF 631 > 100 µM | XF498 > 100 µM | LXFL 529 > 100 µM | M19-MEL > 100 µM | DLD-1 > 100 µM

O=C(CCC1C(=O)NC(=S)NC1=O)c1ccc2ccccc2c1
inactive: DMS-114 > 100 µM | SNB-78 > 100 µM | KM-20L2 > 100 µM | DMS-273 > 100 µM | LXFL 529 > 100 µM | M19-MEL > 100 µM | DLD-1 > 100 µM

CN(C)c1ccc(/C=C2\CNC/C(=C\c3ccc(N(C)C)cc3)C2=O)cc1
inactive: DMS-114 18.8 µM | SNB-78 > 100 µM | KM-20L2 30.1 µM | DMS-273 12.7 µM | RXF 631 21.7 µM | XF498 16.4 µM | LXFL 529 37.4 µM | M19-MEL 18.4 µM | DLD-1 18.9 µM

COc1ccc2cc(C(=O)c3ccccc3C(=O)O)ccc2c1
inactive: DMS-114 > 100 µM | KM-20L2 > 100 µM | DMS-273 > 100 µM | LXFL 529 > 100 µM | M19-MEL > 100 µM | DLD-1 > 100 µM

COC(=O)C(C(=O)C(=O)Nc1c(C)cccc1C)c1cnc2ccccc2n1 (configuration not stated)
inactive: DMS-114 > 100 µM | SNB-78 > 100 µM | KM-20L2 > 100 µM | DMS-273 > 100 µM | RXF 631 > 100 µM | XF498 > 100 µM | LXFL 529 > 100 µM

CCCCCCCCCCCC(=O)OC(COC(N)=O)COc1ccc(Cl)cc1 (configuration not stated)
inactive: DMS-114 17.3 µM | SNB-78 24.3 µM | KM-20L2 37.8 µM | DMS-273 20.9 µM | RXF 631 26.2 µM | XF498 21.4 µM | LXFL 529 20.8 µM | M19-MEL 18.6 µM | DLD-1 38 µM

CC(=O)NC1C(=O)CC(c2ccccc2)N(C)C1c1ccccc1 (configuration not stated)
inactive: DMS-114 > 100 µM | SNB-78 > 100 µM | KM-20L2 > 100 µM | DMS-273 > 100 µM | RXF 631 > 100 µM | LXFL 529 > 100 µM | M19-MEL > 100 µM | DLD-1 > 100 µM

CN(C)/C(=N\C#N)NCc1ccccc1
inactive: SNB-78 > 100 µM | KM-20L2 > 100 µM | DMS-273 > 100 µM | LXFL 529 > 100 µM | M19-MEL > 100 µM | DLD-1 > 100 µM
